18 molecules from patent US11771685B2, “Compounds for the treatment of neurological or mitochondrial diseases” (MUSC FOUNDATION FOR RESEARCH DEVELOPMENT, priority 2018, dated 2023) can be followed below.

Molecules are shown by their SMILES. Read-outs that look alike come from different tables or passages of the source. Some results are limits rather than exact numbers.

Series [1] has as its system HT22 cells. Nature of the series: HT22 oxytosis (glutamate-induced cell death) neuroprotection assay. It is filed as cell-based, mouse. As to conditions: 10 mM Glu. How it is done: The HT22 murine hippocampal cell system was chosen as an initial phenotypic screen for neuroprotective efficacy (Andreux et al., 2013; Andreux et al., 2014; Ohlow et al., 2017; Schubert and Maher, 2012). HT22 cells exposed to high extracellular Glu ([…]) undergo oxytosis, a non-apoptotic programmed cell death involving glutathione (GSH) depletion followed by ROS accumulation, oxidative damage, and a cytotoxic signaling cascade (Tan et al., 2001). Glu blocks the −xC cystine antiporter, causing (Tan et al., 2001) cells to accumulate severe oxidative stress, mitochondrial depolarization, disrupted mitochondrial morphology, and Ca^2+ influx (Tan et al., 2001; Yang et al., 2011; Cheng et al., 2013—cellular events that may occur in neurological diseases, including epilepsy. Thus, the immortalized HT22 cell line is a well-established model of neuronal oxidative stress (Sagara and Schubert, 1998; Matsumoto et al., 1996; Albrecht et al., 2010; Ha and Park, 2006; van Leyen et al., 2005; Tobaben et al., 2011), and a verified model of neurodegeneration to screen for potential neuroprotective drugs (Albrecht et al., 2010; van Leyen et al., 2008; Lewerenz et al., 2009; Lewerenz et al., 2003).
Consistent with that work, most of the 2-amino compounds achieved protection of HT22 cells against glutamate-induced oxytosis in the nM to μM range. […] Neuroprotection based on relative cell viability compared to +Glu and −Glu control cells was measured.
The HT22 neuronal cell line is a subclone of HT4, derived from the mouse hippocampus (Morimoto and Koshland, 1990). […] The HT22 cells used in this study were kindly provided by Dr. David Schubert (The Salk Institute for Biological Studies, La Jolla, CA, USA). The cells were grown in Dulbecco's Modified Eagle's Medium (DMEM/high glucose) supplemented with 10% fetal bovine serum (Hyclone) and 5 mL of antibiotic-antimycotic (Amphotericin B, Penicillin, and Streptomycin; Invitrogen) at 37° C. in 5% CO2.
HT-22 cells were seeded onto 96-well plates at 2.5×10^3 cells per well in 75 μL of medium and maintained at 37° C. in 5% CO2 overnight prior to the initiation of experimental treatments. For glutamate toxicity testing, cells were subsequently treated with 25 μL of medium containing glutamate (monosodium glutamate, Sigma, 1 M stock concentration in media, to achieve a final concentration of 10 mM) plus compound (stock in DMSO) and maintained at 37° C. in 5% CO2 for 24 hr. CellTiter-Blue® (resazurin cell viability assay reagent) was then added to each well at a final concentration of 0.125 mg/mL. The mixture was allowed to incubate for 2-4 hr until sufficient color change occurred. Cell viability was measured as a function of resorufin fluorescence intensity using a Tecan M200 Pro spectrophotometer, 560 nm/590 nm (excitation/emission). Cell viability was calculated as a percentage compared with untreated controls. EC50s were determined using GraphPad Prism's “log(inhibitor) vs. normalized response-Variable slope” function. Morphology of HT22 cells following treatments was determined by phase-contrast microscopy.
(§1) Statistical analyses were performed with GraphPad Prism 6 software. For the in vitro HT22 oxytosis assay, dose-response data were fit using GraphPad Prism's log(inhibitor) vs normalized response-variable slope parameters to determine EC50 values and 95% confidence intervals. For the zebrafish locomotive anti-seizure activity data, multiple comparisons were made using a one-way analysis of variance (ANOVA) with a Kruskal-Wallis Test, followed by the Dunn's Method to determine significant differences between all pairs or between control and experimental groups using the Dunn Method for Joint Ranking. Differences were considered statistically significant when p<0.05. Data from zebrafish experiments are represented as scatter dot plots of individual measurements, with means±standard deviation indicated by bars.

Series [2] relates to PTZ-induced seizure activity in zebrafish larvae. Nature of the series: Zebrafish PTZ-induced seizure model. It is filed as in vivo. As to conditions: for minimal effective concentration / anti-seizure activity: 7 dpf larvae; for minimal effective concentration: 1 hr pre-treatment, 10 mM PTZ, read-out: Anti-seizure activity: lowest tested dose with significant difference vs PTZ-only group; for inhibition in vivo at 5 µM / inhibition in vivo at 10 µM: read-out: reduction of PTZ-induced locomotor activity; for anti-seizure activity: PTZ. How it is done: The zebrafish PTZ-induced seizure model was used to determine the most promising compounds' in vivo efficacy. Zebrafish larvae (7 dpf) were treated with the compound for 1 hr prior to inducing seizures with PTZ. As established by previous larval zebrafish anti-seizure studies (Rahn et al., 2014; Hansen et al., 2004; Baraban et al., 2005), total distance traveled by each fish after seizure induction was measured and used as a proxy for seizure activity. Following collection of locomotor data, observation of a startle response and visual inspection for abnormal morphology confirmed that alterations in swim activity were not caused by compound toxicity.
We induced seizures in 7 dpf zebrafish larvae by the addition of […] PTZ as originally developed by Baraban et al., 2005. In a 48-well plate, one 7-dpf zebrafish was added per well. Larvae were dosed with each compound at a sub-lethal dose 1 hr prior to PTZ treatment. Two control rows were included with each experiment—tank water only control and PTZ only. Seizures were induced by adding PTZ to wells to yield a final concentration of 10 mM. After 5 min, the plate was transferred to the Daniovision instrument (Noldus Information Technology) and the chamber light was turned on. After 2 min, MediaRecorder (Noldus) was used to record video for 15 min. A small number of videos were acquired at 25 frames per second, but the majority of data were acquired at 60 frames per second. […] Ethovision XT software (Noldus) was used to track the fish movement from the video images in order to calculate the total distance traveled over 15 min. All experimental comparisons were made between animals from the same clutch.
as §1

The mark [3] stands for this setting: Mus musculus, HT-22, 24 h, HT22 cells, 24 hr, 95% CI in parentheses.
Where [4] appears, read: HT22 cells, 24 hr, 95% CI in parentheses.
Setting [5] is: Mus musculus, HT-22, HT22 cells.

Broadly, the EC50 is the concentration giving half of the maximal effect. For the molecule `O=C1C=C(NCC#Cc2cccnc2)C(=O)c2ccccc21` [Compound 11, 2-((3-(Pyridin-3-yl)prop-2-yn-1-yl)amino)naphthalene-1,4-dione], the EC50 in series [1] (setting [3]) is 0.29 µM.

In the case of `O=C1C=C(OCc2ccccc2)C(=O)c2ccccc21` [Compound 27, 2-(Benzyloxy)naphthalene-1,4-dione], the EC50 in series [1] (setting [3]) came out at 0.168 µM.

As to `CC#CCOC1=CC(=O)c2ccccc2C1=O` [Compound 28, 2-(But-2-yn-1-yloxy)naphthalene-1,4-dione], the EC50 in series [1] (setting [3]) came to 0.168 µM.

As for `O=C1C=C(NCC#Cc2ccc(C(F)(F)F)cc2)C(=O)c2ccccc21` [Compound 12, 2-((3-(4-(Trifluoromethyl)phenyl)prop-2-yn-1-yl)amino)naphthalene-1,4-dione], the minimal effective concentration in series [2] and in series [2] (Danio rerio) was greater than 10 µM in each case. For the same molecule, the concentration giving a half-maximal response (EC50) was 0.566 µM in series [1] (setting [4]) and roughly 0.5 µM in series [1] (setting [3]).

For the molecule `C=CCC#CCNC1=CC(=O)c2ccccc2C1=O` [Compound 6, 2-(Hex-5-en-2-yn-1-ylamino)naphthalene-1,4-dione], in series [2] (Danio rerio), the minimal effective concentration stood at 10 µM, the inhibition in vivo at 5 µM is roughly 65% and the inhibition in vivo at 10 µM was 85%. Further, the EC50 in series [1] (setting [3]) worked out at 2.64 µM.

Turning to `CCC#CCOC1=CC(=O)c2ccccc2C1=O` [Compound 29, 2-(Pent-2-yn-1-yloxy)naphthalene-1,4-dione], in series [2] (Danio rerio), the minimal effective concentration was no more than 5 µM, the inhibition in vivo at 5 µM was determined as 60% and the inhibition in vivo at 10 µM turned out to be 53%. Moreover, in series [1] (setting [4]), the EC50 was determined as 0.307 µM. Moreover, the half-maximal effective concentration (EC50) in series [1] (setting [3]) is roughly 0.3 µM.

On to `CC(C)=CCC/C(C)=C/CNC1=C(Br)C(=O)c2ccccc2C1=O` [Compound 23, (E)-2-Bromo-3-((3,7-dimethylocta-2,6-dien-1-yl)amino)naphthalene-1,4-dione], for which the “anti-seizure activity” value in series [2] was “ineffective”. Also, the minimal effective concentration in series [2] (Danio rerio) is greater than 10 µM. For the same molecule, the EC50 in series [1] (setting [3]) was 0.133 µM.

For the molecule `C#CCC(NC1=CC(=O)c2ccccc2C1=O)c1ccccc1` (racemic) [Compound 21, Rac-2-((1-phenylbut-3-yn-1-yl)amino)naphthalene-1,4-dione], the minimal effective concentration in series [2] (Danio rerio) was 5 µM. In addition, the EC50 in series [1] (setting [3]) turned out to be 6.15 µM.

Take `CC(C)=CCC/C(C)=C/CNC1=CC(=O)c2ccccc2C1=O` [Compound 22, (E)-2-((3,7-Dimethylocta-2,6-dien-1-yl)amino)naphthalene-1,4-dione]: the “anti-seizure activity” value in series [2] was “activity at 20 and 40 μM that resulted from sedation”. In addition, the minimal effective concentration in series [2] (Danio rerio) is 20 µM. Besides, the results for the 50% effective concentration (EC50) in series [1] (HT22 cells), in series [1] (setting [3]) and in series [1] (setting [5]) were roughly 9 µM, 9.22 µM and roughly 9.2 µM, respectively.

Turning to `CC#CCC(CO)NC1=CC(=O)c2ccccc2C1=O` (racemic) [Compound 18, Rac-2-((1-hydroxyhex-4-yn-2-yl)amino)naphthalene-1,4-dione], the minimal effective concentration in series [2] (Danio rerio) was greater than 10 µM. The half-maximal effective concentration (EC50) in series [1] (setting [3]) was 2.17 µM; in series [1] (setting [5]) it was greater than 2 µM.

`CCCCC#CCOC1=CC(=O)c2ccccc2C1=O` [Compound 31, 2-(Hept-2-yn-1-yloxy)naphthalene-1,4-dione]: the “anti-seizure activity” value in series [2] was “reduced swim distance to control levels”. For the same molecule, in series [2] (Danio rerio), the minimal effective concentration was 10 µM and the inhibition in vivo at 5 µM amounted to 48%. Moreover, the “toxic effects during PTZ-induced seizure experiments” value in series [2] (lack of survival or behavioral impairments) is “higher-than-normal occurrences of toxic effects”. Moreover, the EC50 in series [1] (setting [3]) amounted to 0.0761 µM.

`CC(C)=CCC/C(C)=C/CNC1=C(C)C(=O)c2ccccc2C1=O` [Compound 24, (E)-2-((3,7-Dimethylocta-2,6-dien-1-yl)amino)-3-methylnaphthalene-1,4-dione]: in series [2], the “anti-seizure activity” value is “ineffective”. Further, in series [2] (Danio rerio), the minimal effective concentration was greater than 10 µM. In addition, the EC50 was 2.74 µM in series [1] (setting [3]) and roughly 2.7 µM in series [1] (setting [5]).

As for `CCCCOC1=CC(=O)c2ccccc2C1=O` [Compound 26, 2-Butoxynaphthalene-1,4-dione], in series [1] (Mus musculus, HT-22, HT22 cells, 24 hr, 95% CI in parentheses), the EC50 is 0.078 µM.

Take `COc1cccc(C#CCNC2=CC(=O)c3ccccc3C2=O)c1` [Compound 10, 2-((3-(3-Methoxyphenyl)prop-2-yn-1-yl)amino)naphthalene-1,4-dione]: the minimal effective concentration in series [2] (Danio rerio) is greater than 20 µM. Also, the EC50 in series [1] (setting [3]) turned out to be 0.215 µM.

For `C#CCC(C)NC1=CC(=O)c2ccccc2C1=O` (racemic) [Compound 20, Rac-2-(pent-4-yn-2-ylamino)naphthalene-1,4-dione], in series [2] (Danio rerio), the minimal effective concentration is greater than 10 µM. Moreover, the EC50 is 3.69 µM in series [1] (setting [3]) and greater than 2 µM in series [1] (setting [5]).

As to `O=C1C=C(NCC#Cc2cccc(C(F)(F)F)c2)C(=O)c2ccccc21` [Compound 13, 2-((3-(3-(Trifluoromethyl)phenyl)prop-2-yn-1-yl)amino)naphthalene-1,4-dione], the minimal effective concentration in series [2] and in series [2] (Danio rerio) was greater than 10 µM each time. Also, the EC50 is 0.584 µM in series [1] (setting [4]) and roughly 0.5 µM in series [1] (setting [3]).

On to `O=C1C=C(NCC#Cc2cccc(F)c2)C(=O)c2ccccc21` [Compound 9, 2-((3-(3-Fluorophenyl)prop-2-yn-1-yl)amino)naphthalene-1,4-dione], for which the EC50 in series [1] (setting [3]) amounted to 0.216 µM.

For `CCCC#CCOC1=CC(=O)c2ccccc2C1=O` [Compound 30, 2-(Hex-2-yn-1-yloxy)naphthalene-1,4-dione], in series [2] (Danio rerio), the minimal effective concentration is 5 µM, the inhibition in vivo at 5 µM amounted to 53% and the inhibition in vivo at 10 µM is 68%. In addition, the EC50 in series [1] (setting [3]) came out at 0.249 µM.
